Where only a bound is given, the exact number is not on record here.

By IC50 is commonly meant the concentration needed to halve the response being measured.

The test concerns the target T1, β-secretase(BACE) (Homo sapiens, UniProt P56817).
T1 construct: purchased Panvera
Description: BACE Assay-1 (MCA-substrate, IC50). Type of test: biochemical. The following applies: procedure of Example 158; read-out: IC50 μM (158). The method, then: The following standards are reagents were used in this assay: Sodium Citrate trisodium salt dihydrate (Sigma), Citric Acid monohydrate (Merck), PEG8000 (Sigma), MCA-substrate (Bachem), β-secretase (BACE) (Panvera), 96-well plate zwart (Costar (Elscolab)), StatVal (Bachem).
The following standard assay buffer solution was prepared and used in this assay: 0.05 M, pH 5.0 mixture of sodium citrate trisodium salt dihydrate (9.56 g), citric acid monohydrate (3.68 g) and PEG8000 (0.50 g).
The MCA-substrate stock solution was prepared by mixing 10 mg MCA-substrate with 5 mL DMSO for a final solution concentration of 2.0 mg/mL. The substrate work solution was prepared by mixing 0.1 mL substrate in 1.90 mL assay buffer for a final concentration of 0.05 mM. The β-secretase (BACE) work solution was prepared by mixing 8 μL BACE in 2 mL assay buffer for a final concentration of 10 μg/mL.
The screen procedure for this assay was as follows. 60 μL of assay buffer was pippeted into each well of a 96-well plate. To each well was then pipetted 1 μL of test compound at the selected concentration. To each well was then added 20 μL of the β-secretase work solution and 20 μL of the MCA-substrate stock solution.
The procedure for the blank was as follows. 80 μL of assay buffer was pipetted into each well to be used as a blank control. To each well was then added 1 μL of DMSO and 20 μL of MCA-substrate solution in each well.
The procedure for the positive control was as follows. 60 μL of assay buffer was pipetted into each well to be used as a positive control. To each well was then added 1 μL of DMSO, 20 μL of BACE work solution and 20 μL of MCA-substrate stock solution.
For test compounds, measured at multiple concentrations, the measured T0 and T60 values were used to calculate an IC50 value using Graphpad Software (or PIR).

T1 sequence (P56817 46-501): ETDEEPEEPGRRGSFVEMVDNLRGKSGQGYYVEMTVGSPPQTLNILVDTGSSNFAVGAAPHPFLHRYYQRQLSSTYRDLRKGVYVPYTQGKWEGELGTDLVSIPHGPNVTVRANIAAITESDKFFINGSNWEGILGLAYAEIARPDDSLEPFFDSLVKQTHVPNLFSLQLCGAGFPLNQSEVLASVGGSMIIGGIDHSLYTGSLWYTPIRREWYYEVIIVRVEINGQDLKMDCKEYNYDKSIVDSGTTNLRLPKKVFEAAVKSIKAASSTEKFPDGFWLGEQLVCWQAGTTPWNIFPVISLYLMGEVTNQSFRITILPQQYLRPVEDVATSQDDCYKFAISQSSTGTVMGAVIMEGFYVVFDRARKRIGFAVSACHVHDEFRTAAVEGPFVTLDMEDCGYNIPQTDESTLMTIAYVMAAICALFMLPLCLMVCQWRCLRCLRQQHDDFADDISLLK

Turning to `CCCN1Cc2cc(Oc3cccc(NS(=O)(=O)CCc4cccc5ccccc45)c3)ccc2N=C1N` [Compound 281], the IC50 turned out to be 1.6 µM. In the case of `CCN(C(=O)CCN1Cc2cc(C(=O)c3ccccc3)ccc2N=C1N)C1CCCCC1` [Compound 3] it was 4 µM. In the case of `CCCN1Cc2cc(Oc3cccc(NS(=O)(=O)c4ccccc4C(F)(F)F)c3)ccc2N=C1N` [Compound 277] it was 0.7 µM. In the case of `CN(C(=O)CCN1Cc2ccccc2N=C1N)c1ccccc1` [Compound 800] it was 17 µM; in that of `CCCN1Cc2cc(Sc3cccc(NS(=O)(=O)c4c(C)cc(C)cc4C)c3)ccc2N=C1N` [Compound 497], 0.011 µM. As to `CCCN1Cc2cc(Oc3cccc(NS(=O)(=O)c4csc5ccccc45)c3)ccc2N=C1N` [Compound 245], the IC50 is 0.17 µM. In the case of `CCCN1Cc2cc(-c3ccccc3CCNS(=O)(=O)c3ccccc3)ccc2N=C1N` [Compound 385, N-{2-[2-(2-Amino-3-propyl-3,4-dihydro-quinazolin-6-yl)-phenyl]-ethyl}-benzenesulfonamide], the IC50 worked out at 0.28 µM.

In the case of `CCCN1Cc2cc(Oc3cccc(NS(=O)(=O)c4cccc(OC)c4)c3)ccc2N=C1N` [Compound 271], the IC50 worked out at 0.39 µM. On to `CCCN1Cc2cc(Oc3cccc(C(=O)NCc4c(C)cc(C)cc4C)c3)ccc2N=C1N` [Compound 423], for which the IC50 amounted to 5.8 µM. In the case of `CCCN1Cc2cc(Oc3cccc(NS(=O)(=O)c4ccc(-c5cc(C(F)(F)F)on5)s4)c3)ccc2N=C1N` [Compound 255] it was above 10 µM; in that of `CN(C(=O)CCN1Cc2cc(C(=O)c3ccc(F)cc3)ccc2N=C1N)C1CCCCC1` [Compound 2], 26 µM.

`COCCN1Cc2cc(C(=O)c3ccccc3)ccc2N=C1N` [Compound 18]: the IC50 came out at 91 µM. The same measure for `CCCN1Cc2cc(Oc3cccc(NS(=O)(=O)c4ccc(-c5ccccc5)cc4)c3)ccc2N=C1N` [Compound 280]: 11 µM; for `CCCN1Cc2cc(Oc3cccc(NS(=O)(=O)c4cccc(C#N)c4)c3)ccc2N=C1N` [Compound 270]: 2.37 µM. The same measure for `CN(C(=O)CCN1Cc2cc(C(=O)c3ccc(F)cc3)ccc2N=C1N)C1CCCC1` [Compound 25]: 5.5 µM; for `CCN(C(=O)CCN1Cc2cc(C(=O)c3ccc(F)cc3)ccc2N=C1N)C1CCCCC1` [Compound 6]: 9.1 µM; for `CCCN1Cc2cc(Oc3cccc(NS(=O)(=O)c4cccc(Br)c4)c3)ccc2N=C1N` [Compound 282]: above 10 µM. In the case of `CCOC(=O)N1CCC(N2Cc3cc(Oc4cccc(NS(=O)(=O)c5c(C)cc(C)cc5C)c4)ccc3N=C2N)CC1` [Compound 362] it was 0.53 µM. Turning to `CN(C(=O)CCN1Cc2cc(C(=O)c3ccccc3)ccc2N=C1N)c1ccccc1` [Compound 13], the IC50 was determined as 16 µM.

`CCCN1Cc2cc(Oc3cccc(NS(=O)(=O)c4ccc(OC)c(OC)c4)c3)ccc2N=C1N` [Compound 249]: the IC50 was determined as 5.2 µM.

For the compound `CN(Cc1ccccc1)C(=O)CCN1Cc2cc(C(=O)c3ccccc3)ccc2N=C1N` [Compound 43], the IC50 came to 7.2 µM.

For `COc1cc(C)ccc1S(=O)(=O)Nc1cccc(Oc2ccc3c(c2)CN(CCCCCO)C(N)=N3)c1` [Compound 355], the IC50 came to 2.6 µM. The same measure for `CCCN1Cc2cc(Oc3cccc(NS(=O)(=O)C(C)C)c3)ccc2N=C1N` [Compound 238]: 8.9 µM.

For the compound `CN(C(=O)CCN1Cc2cc(C(O)c3ccccc3)ccc2N=C1N)C1CCCCC1` (centres unmarked) [Compound 32, 3-[2-Amino-6-(hydroxy-phenyl-methyl)-4H-quinazolin-3-yl]-N-cyclohexyl-N-methyl-propionamide], the IC50 is 14 µM. In the case of `CCCN1Cc2cc(Oc3cccc(NCc4c(C)cc(C)cc4C)c3)ccc2N=C1N` [Compound 500] it was 0.16 µM; in that of `CN(C(=O)CCN1Cc2cc(C(=O)c3ccccc3)ccc2N=C1N)C1CCCC1` [Compound 24], 1.8 µM; in that of `NC1=Nc2ccc(C(=O)c3ccccc3)cc2CN1CCC(=O)N(C1CCCCC1)C1CCCCC1` [Compound 39], 1.3 µM. The same measure for `CCCN1Cc2cc(Oc3cccc(NS(=O)(=O)c4c(C)cc(C)cc4C)c3)ccc2N=C1N` [Compound 243]: 0.033 µM; for `CCCN1Cc2cc([S+]([O-])c3cccc(NS(=O)(=O)c4ccccc4)c3)ccc2N=C1N` (centres unmarked) [Compound 387, N-[3-(2-Amino-3-propyl-3,4-dihydro-quinazoline-6-sulfinyl)-phenyl]-benzenesulfonamide]: 3.3 µM; for `CCOC(=O)N1CCC(N2Cc3cc(Oc4cccc(NS(=O)(=O)c5ccc(C)cc5OC)c4)ccc3N=C2N)CC1` [Compound 353]: 0.35 µM. The same measure for `CCCN1Cc2cc(Oc3cccc(NS(=O)(=O)c4ccc(Br)s4)c3)ccc2N=C1N` [Compound 284]: 0.87 µM. Consider `CN(C(=O)CCN1Cc2ccc(C(=O)c3ccccc3)cc2N=C1N)C1CCCCC1` [Compound 35], for which the IC50 was found to be 33 µM. The same measure for `COc1cc(OC)cc(Oc2ccc3c(c2)CN(CCCCC(=O)N(C)C2CCCCC2)C(N)=N3)c1` [Compound 288]: above 10 µM; for `CCCN1Cc2cc(Oc3cccc(CNCCc4ccccc4)c3)ccc2N=C1N` [Compound 431]: 0.8 µM; for `NC1=Nc2ccc(Oc3cccc(NS(=O)(=O)c4ccccc4)c3)cc2CN1CCCCCO` [Compound 380]: 0.71 µM. The same measure for `Cc1cc(C)c(S(=O)(=O)Nc2cccc(Oc3ccc4c(c3)CN(CCCCCO)C(N)=N4)c2)c(C)c1` [Compound 383]: 0.65 µM; for `CCCN1Cc2cc(Oc3cccc(NS(=O)(=O)c4ccc(OC(F)(F)F)cc4)c3)ccc2N=C1N` [Compound 283]: above 10 µM; for `CCCN1Cc2cc(Oc3cccc(NCc4ccccc4)c3)ccc2N=C1N` [Compound 507]: 0.081 µM.

Regarding `CCCN1Cc2cc(OCc3cccc(NS(=O)(=O)c4ccccc4)c3)ccc2N=C1N` [Compound 203], the IC50 amounted to 4.7 µM. For `CN(C(=O)CCN1Cc2cc(Cc3ccccc3)ccc2N=C1N)C1CCCCC1` [Compound 36, 3-(2-Amino-6-benzyl-4H-quinazolin-3-yl)-N-cyclohexyl-N-methyl-propionamide], the IC50 was 2.3 µM. The same measure for `CCCN1Cc2cc(Oc3cccc(NS(=O)(=O)c4ccc(-c5ccccn5)s4)c3)ccc2N=C1N` [Compound 251]: above 10 µM. The same measure for `CCCN1Cc2cc(Oc3cccc(NS(=O)(=O)c4ccc(NC(C)=O)cc4)c3)ccc2N=C1N` [Compound 246]: above 10 µM; for `CCCN1Cc2cc(Oc3cccc(NS(=O)(=O)c4cc(S(=O)(=O)c5ccccc5)cs4)c3)ccc2N=C1N` [Compound 285]: above 10 µM. The same measure for `CCCN1Cc2cc(Oc3cccc(NS(=O)(=O)c4cccc5c(N(C)C)cccc45)c3)ccc2N=C1N` [Compound 253]: above 10 µM. Consider `CCCN1Cc2cc(Oc3cccc(NS(=O)(=O)c4cccs4)c3)ccc2N=C1N` [Compound 241], for which the IC50 was found to be 0.49 µM. Consider `CN(CCc1ccccc1)C(=O)CCN1Cc2cc(C(=O)c3ccccc3)ccc2N=C1N` [Compound 40], for which the IC50 was found to be 9.8 µM. Regarding `CCCN1Cc2cc(Oc3cccc(NCc4c(OC)cccc4OC)c3)ccc2N=C1N` [Compound 501], the IC50 turned out to be 3.4 µM. The same measure for `CCCN1Cc2cc(Oc3cccc(NS(=O)(=O)c4cc(C(=O)O)ccc4OC)c3)ccc2N=C1N` [Compound 279]: above 10 µM; for `CCCN1Cc2cc(Oc3cccc(NS(=O)(=O)c4cc(OC)ccc4OC)c3)ccc2N=C1N` [Compound 248]: 6.9 µM. In the case of `CCCN1Cc2cc(Oc3cccc(NC(=O)c4ccccc4)c3)ccc2N=C1N` [Compound 60] it was 5.6 µM; in that of `CN(C(=O)CCN1Cc2cc(-c3noc4cc(F)ccc34)ccc2N=C1N)C1CCCCC1` [Compound 37], 12 µM.

Consider `CN(Cc1cccc2ccccc12)C(=O)CCN1Cc2cc(C(=O)c3ccccc3)ccc2N=C1N` [Compound 42], for which the IC50 was 15 µM.

As to `CCCN1Cc2cc(Oc3cccc(NS(=O)(=O)c4c(C)noc4C)c3)ccc2N=C1N` [Compound 242], the IC50 was above 10 µM. In the case of `CCCN1Cc2cc(Oc3cccc(NS(=O)(=O)c4ccsc4C(=O)OC)c3)ccc2N=C1N` [Compound 276] it was above 10 µM; in that of `NC1=Nc2ccc(Oc3cccc(NCC4CCCCC4)c3)cc2CN1CCCCO` [Compound 95], 0.31 µM; in that of `CN(C(=O)CCN1Cc2cc(C(=O)c3ccccc3)ccc2N=C1N)C12CC3CC(CC(C3)C1)C2` [Compound 41], 5.1 µM. In the case of `CC(C)(C)OC(=O)N1CCC(CN2Cc3cc(Oc4cccc(NS(=O)(=O)c5ccccc5)c4)ccc3N=C2N)CC1` [Compound 384] it was 0.13 µM; in that of `NC1=Nc2ccc(Oc3cccc(NS(=O)(=O)c4ccccc4)c3)cc2CN1CCCCO` [Compound 126], 0.24 µM; in that of `CCCN1Cc2cc(Oc3cccc(NS(=O)(=O)c4ccc(OC)cc4)c3)ccc2N=C1N` [Compound 272], 0.52 µM.
